The values below come from US20250223300A1, “MACROCYCLIC COMPOUND AND PHARMACEUTICAL COMPOSITION AND USE THEREOF” (BETTA PHARMACEUTICALS CO., LTD, priority 2022, published 2025).

Data set [1] deals with A431 cell carrying EGFR WT. The data set can be described thus: Cell proliferation inhibitory activity assay, A431. The format is cell-based. The following applies: cell proliferation inhibition, 72 hours, luminescence. The procedure:
(§1) Suspension cells Ba/F3 (EGFR. Dell9/T790M/C797S), Ba/F3 (EGFR L858R/T790M/C797S), Ba/F3 (EGFR Del19/C797S), and Ba/F3 (EGFR L858R/C797S) overexpressing different EGFR mutations were cultured in PRMI 1640 containing 10% FBS and 1% PS, and adherent cells A431 carrying EGFR WT were cultured in DMEM containing 10% FBS and 1% PS. The experimental steps for compound activity detection are as follows: • (1) Take adherent cells in the logarithmic growth phase, digest them with trypsin count them, and then inoculate them into a 96-well plate at a certain density. Incubate them overnight at 37° C. and 5% CO2 to allow them to adhere.
(§2) Y=minimum+([…])/(1+10^((Log IC50−X)*slope)); • X: logarithm of compound concentration; Y: cell survival inhibition rate.

Data set [2] deals with Ba/F3 (EGFR L858R/T790M/C797S) (Homo sapiens, UniProt P00533, T790M/C797S/L858R, cells depend on it). The data set can be described thus: Cell proliferation inhibitory activity assay, Ba/F3 EGFR L858R/T790M/C797S. The format is cell-based. As to conditions: cell proliferation inhibition, 72 hours, luminescence; read-out: Ba/F3 cells overexpressing different EGFR mutations IC50 (nM) L858R/T790M/C797S. The protocol: as §1, §2

Data set [3] deals with Ba/F3 (EGFR L858R/C797S) (Homo sapiens, UniProt P00533, C797S/L858R, cells depend on it). The experiment in a line: Cell proliferation inhibitory activity assay, Ba/F3 EGFR L858R/C797S. It counts as cell-based. As to conditions: cell proliferation inhibition, 72 hours, luminescence; read-out: Ba/F3 cells overexpressing different EGFR mutations IC50 (nM) L858R/C797S. The procedure: as §1, §2

Data set [4] in a line: Metabolic stability of liver microsomes, mouse. It counts as in vitro ADME. The following applies: NADPH, 0-45 min; for microsomal CLint: read-out: CLint(μL/min/mg protein) Mouse. The procedure: (§3) The liver microsomes of human, rat, mouse and dog were used to study the metabolic stability of the compounds. The specific experimental steps are as follows: • (1) Add 40 μL MgCl2 and 306 μL PBS to each well of a 96-well plate, and then add 4 μL compound, with a final DMSO concentration of ≤0.5%. Set up a blank well without compound; • (2) Add 10 μL of 20 mg/mL liver microsomes to each well, incubate at 37° C. for 10 min; • (3) Add 40 μL NADPH working solution to each well to start the reaction, and set up a control well without NADPH; • (4) At 0, 5, 15, and 45 min after the start of the reaction, 50 μL of sample was taken out, the termination solution was added, and the mixture was shaken for 5 min. • (5) The samples were then centrifuged at 3,220 g for 10 min, and 50 μL of the supernatant was removed and was added 200 μL water for dilution and analysis by LC-MS/MS.
(§4) The in vitro intrinsic clearance (in vitro CLint, in μL/min/mg) was calculated from the in vitro half-life t1/2 (minutes) using the following equation (mean of replicates):
(§5) In vitro clearance rate=0.693/in vitro half-life t1/2×[incubation volume (μL)/(protein amount (mg)]

Data set [5] concerns the target Ba/F3 (EGFR Del19/C797S) (Homo sapiens, UniProt P00533, C797S, cells depend on it, form not given). The data set can be described thus: Cell proliferation inhibitory activity assay, Ba/F3 EGFR Del19/C797S. The format is cell-based. As to conditions: cell proliferation inhibition, 72 hours, luminescence; read-out: Ba/F3 cells overexpressing different EGFR mutations IC50 (nM) Del19/C797S. The procedure:
as §1, §2

For data set [6], the target named is Ba/F3 cells overexpressing EGFR Del19/T790M/C797S (Homo sapiens, UniProt P00533, T790M/C797S, cells depend on it, form not given). The experiment in a line: Cell proliferation inhibitory activity assay, Ba/F3 EGFR Del19/T790M/C797S. It counts as cell-based. The following applies: cell proliferation inhibition, 72 hours, luminescence; read-out: Ba/F3 cells overexpressing different EGFR mutations IC50 (nM) Del19/T790M/C797S. The procedure:
as §1, §2

Data set [7] can be described thus: Metabolic stability of liver microsomes, human. It counts as in vitro ADME. The following applies: NADPH, 0-45 min; for microsomal CLint: read-out: CLint(μL/min/mg protein) Human. The protocol:
as §3, §4, §5

A short description of data set [8]: Metabolic stability of liver microsomes, rat. The format is in vitro ADME. As to conditions: NADPH, 0-45 min; for microsomal CLint: read-out: CLint(μL/min/mg protein) Rat. The protocol: as §3, §4, §5
Data set [9] is described as follows: Metabolic stability of liver microsomes, dog. It counts as in vitro ADME. The following applies: NADPH, 0-45 min, read-out: CLint(μL/min/mg protein) Dog. The protocol:
as §3, §4, §5

Data set [10] in a line: Pharmacokinetics in mice. As to conditions: mouse, po, female BALB/c mice, 5 mg/kg orally by gavage, plasma; for Cmax: read-out: Cmax. The format is in vivo, mouse. The procedure:
Mouse PK studies were performed using female BALB/c mice (20-30 g). Compounds were prepared and prepared immediately before use. Mice were administered intravenously or orally by gavage. Blood was collected from the mouse orbital venous plexus, and 100 μL of whole blood was transferred to a K2-EDTA tube at each time point.
1 mg/kg was given intravenously, and whole blood was collected at 0.083, 0.25, 0.5, 1, 2, 4, 6 and 24 h after administration; 5 mg/kg were given orally by gavage, and whole blood was collected at 0.25, 0.5, 1, 2, 4, 6, 24 h after administration in different batches, or the mice were killed at 2, 4 and 6 h to obtain brains. Whole blood samples were centrifuged and plasma was separated; brain tissue samples were homogenized by adding 4 times the volume of buffer, and the plasma and brain tissue samples were stored in a −80° C. refrigerator for later use. After the above plasma and brain tissue samples were precipitated with acetonitrile for protein, the supernatant was taken and mixed with water in a 1:1 ratio, and 10 μL was taken for LC-MS/MS detection.

The nature of data set [11]: Pharmacokinetics in rats. The format is in vivo, rat. The following applies: rat, po, male SD rats, 5 mg/kg orally by gavage, plasma; for Cmax: read-out: Cmax. The procedure: Male SD rats (200-300 g) were used for rat PK studies. Compounds were prepared and prepared immediately before use. Rats were administered intravenously or orally by gavage. Blood was collected from the rats through the orbital venous plexus, and 100 μL whole blood was collected into K2-EDTA tubes at each time point.
1 mg/kg was given intravenously, and whole blood was collected at 0.083, 0,25, $0.5, 1, 2, 4, 7, 24, 48, and 72 h after administration; 5 mg/kg were given orally by gavage, and whole blood was collected at 0.25, 0.5, 1, 2, 4, 7, 24, 48, and 72 h after administration in different batches, or the rats were killed at 4 and 24 h to obtain brains. The brain tissue samples were homogenized by adding 4 times the volume of buffer, and the whole blood and brain tissue samples were stored in a −80° C. refrigerator for later use. After the above whole blood and brain tissue samples were precipitated with acetonitrile for protein, the supernatant was taken and mixed with water in a ratio of 1:2, and 10 μL was taken for LC-MS/MS detection.

On to “5^6-(9-(3- methoxy- propyl)-3,9- diazaspiro[5.5] undecan-3-yl)- 2^6-methyl-5^1H- 11-oxa-4-aza- 5(2,1)-benzo[d] imidazola- 1(34),2(2,4)- dipyridinacyclo- undecaphan- 3-one [Example 76]”, for which, in data set [1], the IC50 came to 586 nM. Further, the GI50 in [2] was 0.2 nM; in data set [3] it was 0.34 nM; in data set [5], 0.09 nM; in data set [6] it was 0.14 nM. Further, the “CLint(μL/min/mg protein) Mouse” value in [4] worked out at 23 μL/min/mg protein. For the same molecule, the “CLint(μL/min/mg protein) Human” value in data set [7] was found to be 8 μL/min/mg protein. In addition, in [8], the “CLint(μL/min/mg protein) Rat” value is 15.6 μL/min/mg protein.

`Cc1cc2cc(n1)-c1cnccc1OCCCCCn1c(nc3ccc(N4CCC5(CCN(C)CC5)CC4)cc31)NC2=O` [Example 1, 2^6-methyl-5^6-(9-methyl-3,9-diazaspiro[5.5]undecan-3-yl)-5^1H-11-oxa-4-aza-5(2,1)-benzo[d]imidazola-1(3,4),2(2,4)-dipyridinacycloundecaphan-3-one] showed a half-maximal inhibitory concentration (IC50) in data set [1] (Homo sapiens, A-431) of 1640 nM. Also, the GI50 in [2] is 0.62 nM; in data set [3], 0.23 nM; in data set [5] it was 0.08 nM; in data set [6], 0.24 nM. The microsomal CLint stood at 32.7 µL/min/mg in data set [4], 8.9 µL/min/mg in data set [9], 7.2 µL/min/mg in [7] and 14.2 µL/min/mg in data set [8].

In turn, `Cc1cc2cc(n1)-c1cnccc1OCCC[C@@H](C)Cn1c(nc3ccc(N4CCC5(CC4)CCN(C4COC4)CC5)cc31)NC2=O` [Example 4] displayed an IC50 in data set [1] (Homo sapiens, A-431) of 274 nM. Besides, the area under the curve AUC(0-t) in data set [10] was 2090 ng·h/mL; in [11], 2590 ng·h/mL. Also, the half-life in data set [10] is 5.28 h; in data set [11], 27.5 h. Besides, the Cmax in data set [10] was found to be 181 ng/mL; in [11], 165 ng/mL. Further, the GI50 turned out to be 1.1 nM in [2], 0.8 nM in [3], 0.2 nM in data set [5] and 0.2 nM in data set [6]. Also, the values for the microsomal CLint in data set [9], in data set [7] and in data set [8] were 24 µL/min/mg, 26.3 µL/min/mg and 5.6 µL/min/mg, respectively.

The molecule `Cc1cc2cc(n1)-c1cnccc1OCCC[C@@H](C)Cn1c(nc3cc(F)c(N4CCC5(CC4)CCN(C4COC4)CC5)cc31)NC2=O` [Example 6, (R)-5^5-fluoro-2^6,7-dimethyl-5^6-(9-(oxetan-3-yl)-3,9-diazaspiro[5.5]undecan-3-yl)-5^1H-11-oxa-4-aza-3(2.1)-benzo[d]imidazola-1(3,4),2(2,4)-dipyridinacycloundecaphan-3-one] showed an IC50 in [1] (Homo sapiens, A-431) of 403 nM. Also, the results for the AUC(0-t) in data set [10] and in data set [11] were 1140 ng·h/mL and 1700 ng·h/mL, respectively. Further, the results for the half-life in [10] and in [11] were 21.5 h and 17.2 h, respectively. The results for the Cmax in data set [10] and in [11] were 92.4 ng/mL and 106 ng/mL, respectively. The GI50 in data set [2] came to 4.1 nM; in [3], 2.1 nM; in [5] it was 0.38 nM; in [6] it was 2.1 nM. Further, the microsomal CLint worked out at 20.6 µL/min/mg in data set [9], 41.5 µL/min/mg in data set [7] and 2.9 µL/min/mg in data set [8].

In the case of `Cc1cc2cc(n1)-c1cnccc1OCCC[C@@H](C)Cn1c(nc3cc(C)c(N4CCC5(CC4)CCN(C4COC4)CC5)cc31)NC2=O` [Example 12, (R)-2^6,5^5,7-trimethyl-5^6-(9-(oxetan-3-yl)-3,9-diazaspiro[5.5]undecan-3-yl)-5^1H-11-oxa-4-aza-5(2,1)-benzo[d]imidazola-1(3,4),2(2,4) -dipyridinacycloundecaphan-3-on], the IC50 in data set [1] (Homo sapiens, A-431) was 1000 nM. The GI50 was 7.6 nM in data set [2], 4.4 nM in data set [3], 0.48 nM in data set [5] and 4.9 nM in data set [6]. For the same molecule, the values for the microsomal CLint in [4], in [9] and in data set [7] were 5.5 µL/min/mg, 10.4 µL/min/mg and 24.9 µL/min/mg, respectively.

Regarding `Cc1cc2cc(n1)-c1cnccc1OCCCCCn1c(nc3cc(C)c(N4CCC5(CCN(CCF)CC5)CC4)cc31)NC2=O` [Example 59, 5^6-(9-(2-fluoroethyl)-3,9-diazaspiro[5.5]undecan-3-yl)-2^6,5^5-dimethyl-5^1H-11-oxa-4-aza-5(2,1)-benzo [d]imidazola-1(3,4),2(2,4)-dipyridinacyclo-undecaphan-3-one], the GI50 in data set [2] is 3.7 nM; in data set [3], 5.7 nM; in data set [5], 0.45 nM; in data set [6] it was 2.4 nM. Moreover, the microsomal CLint in data set [4] was determined as 8.93 µL/min/mg; in data set [7], 4.82 µL/min/mg; in [8], 23.3 µL/min/mg.

Consider `COCCCN1CCC2(CC1)CCN(c1ccc3nc4n(c3c1)C[C@H](C)CCCOc1ccncc1-c1cc(cc(C)n1)C(=O)N4)CC2` [Example 77, (R)-5^6-(9-(3-methoxypropyl)-3,9-diazaspiro [5.5]undecan-3-yl)-2^6,7-dimethyl-5^1H-11-oxa-4-aza-5(2,1)-benzo [d]imidazola-1(3,4),2(2,4)-dipyridinacyclo-undecaphan-3-one], for which the IC50 in data set [1] (Homo sapiens, A-431) is 426 nM. Moreover, the GI50 is 0.36 nM in data set [2], 0.18 nM in data set [3], 0.23 nM in data set [5] and 0.36 nM in [6]. Moreover, the microsomal CLint turned out to be 25.1 µL/min/mg in data set [4], 17 µL/min/mg in [7] and 6.7 µL/min/mg in [8].
